The values that follow come from patent US20230372458A1, “ANTIVIRAL AGENT FOR COMBINED THERAPY OF COVID-19 (SARS-COV-2)” (priority 2020, published 2023).

The test system of this assay is COVID-19 (SARS-CoV-2). The note with it: lung damage by computer tomography.

Read-outs that look alike come from different tables or passages of the source.

On to `NC(=O)c1nc(F)cnc1O` [FPV, 6-fluoro-3-hydroxy-2-pyrazinecarboxamide], for which the “CT on Day 14: Improvement, percent of patients” value is recorded as “(72.7%)”; the “CT on Day 14: No change, percent of patients” value is listed as “(9.1%)”; the “CT on Day 14: Worsening, percent of patients” value is “(18.2%)”. Further, under “count of patients”, the “CT on Day 14: Improvement, number of patients” value was 8; the “CT on Day 14: No change, number of patients” value is recorded as 1; the “CT on Day 14: Worsening, number of patients” value was 2. Moreover, where the note is “listed as FVP”, the “CT on Day 14: Improvement, percent of patients” value amounted to 72.7%; the “CT on Day 14: No change, percent of patients” value turned out to be 9.1%; the “CT on Day 14: Worsening, percent of patients” value is 18.2%.
